In the assay the target is Thymidine kinase (Herpes simplex virus 1). Nature of the assay: Binding affinity was determined against Herpes simplex virus (HSV) -1 thymidine kinase in vero cell monolayer culture.

The compound `Nc1nc2c(ncn2CC=C(CO)CO)c(=O)[nH]1` had a Ki of 25 µM.

Usually Ki stands for the equilibrium dissociation constant of an inhibitor or competing ligand from its target. High values mean weaker binding, low ones tighter binding.

The values above are taken from BindingDB's records for doi:10.1021/jm00388a036 (1987).
